Measured values from US11420940B2, “4-carboxamido-isoindolinone derivatives as selective parp-1 inhibitors” (NERVIANO MEDICAL SCIENCES S.r.l, priority 2012, dated 2022).

Columns and labels:
[1] = Pharmacokinetics and oral bioavailability in the mouse; format: in vivo; settings: 10 mg/kg, oral vs IV dose-normalized AUC
[2] = test system: Capan-1 human pancreatic cancer tumors; assay: In vivo efficacy as single agent, Capan-1 BRCA-2 mutated mouse model; settings: 75 mg/kg oral, daily (schedule 1-8 or 1-10)
Description: Balb, athymic Nu/Nu male mice, from Harlan (Italy), were maintained in agreement with the European Communities Council Directive no. 86/609/EEC concerning the protection of animals used for experimental or other scientific purposes, in cages with paper filter cover, food and bedding sterilized and acidified water. Fragments of Capan-1 human pancreatic cancer tumors were implanted subcutaneously. […] Each group included seven animals. The treatment started one day after randomization. Compound of formula (I) was administered by oral route as a methocel suspension at the indicated doses and times. Tumor dimension was measured regularly by calipers during the experiments and tumor mass was calculated as described in Simeoni M. et al., Cancer Res 64, 1094-1101 (2004).

[3] = test system: BRCA-mutated breast, ovarian and prostate cancer; settings: 19 patients with BRCA mutations and breast; cited from earlier work

SMILES	F on AUC [1]	Max TGI (%) [2]	objective response rate [3]
NC(=O)c1cccc2c1C(=O)N(C1CCN(C3CCCCC3)CC1)C2 [(11), 2-(1-cyclohexyl-piperidin-4-yl)-3-oxo-2,3-dihydro-1H-isoindole-4-carboxylic acid amide]	100%	42%	–
NC(=O)c1cccc2c1C(=O)N(C1CCN(Cc3ccccn3)CC1)C2 [(15), 3-oxo-2-(1-pyridin-2-ylmethyl-piperidin-4-yl)-2,3-dihydro-1H-isoindole-4-carboxylic acid amide]	68%	54%	–
O=C(c1cc(Cc2n[nH]c(=O)c3ccccc23)ccc1F)N1CCN(C(=O)C2CC2)CC1 [Olaparib]	–	–	47%

The next lines start with results.

F on AUC [1]	SMILES	Max TGI (%) [2]	objective response rate [3]
30%	NC(=O)c1cccc2c1C(=O)N(CCN1CCc3ccccc3C1)C2 [(3), 2-[2-(3,4-dihydro-1H-isoquinolin-2-yl)-ethyl]-3-oxo-2,3-dihydro-1H-isoindole-4-carboxylic acid amide]	–	–
57%	NC(=O)c1cccc2c1C(=O)N(C1CCN(Cc3ccoc3)CC1)C2 [(14), 2-(1-furan-3-ylmethyl-piperidin-4-yl)-3-oxo-2,3-dihydro-1H-isoindole-4-carboxylic acid amide]	–	–
37%	NC(=O)c1cccc2c1C(=O)N(C1CCN(Cc3ccc[nH]3)CC1)C2 [(16), 3-oxo-2-[1-(1H-pyrrol-2-ylmethyl)-piperidin-4-yl]-2,3-dihydro-1H-isoindole-4-carboxylic acid amide]	–	–
